From ChEMBL document CHEMBL5126541, “Recent applications of vinyl sulfone motif in drug design and discovery” (Eur J Med Chem, 2022)

How the values were obtained:
SARS-CoV = assay: Antiviral activity against SARS-CoV Live SARS-CoV assay and cytotoxicity assessed as reduction in viral cytopathic effect; type: functional, organism-based; settings: Severe acute respiratory syndrome-related coronavirus
Ebolavirus = assay: Antiviral activity against Ebola virus pseudotyped infected in HEK293T cells assessed as reduction in viral cytopathic effect; type: functional, organism-based; settings: Orthoebolavirus, HEK-293T
[1] = target: Telomerase reverse transcriptase (Homo sapiens, UniProt O14746); assay: Inhibition of telomerase (unknown origin)
Human alphaherpesvirus 3 = assay: Antiviral activity against VZV strain Oka bearing wild type thymidine kinase assessed as reduction in virus induced cytopathogenicity; type: functional, organism-based
L1210 = assay: Antiproliferative activity against mouse L1210 cells treated for 48 hrs; type: functional, cell-based; settings: L1210, 48 h
HeLa [2] = assay: Antiproliferative activity against human HeLa cells treated for 4 days; type: functional, cell-based; settings: 96 h
CCRF-CEM = assay: Antiproliferative activity against human CEM cells treated for 96 hrs; type: functional, cell-based
MDA-MB-231 = assay: Anticancer activity against human MDA-MB-231 cells; type: functional, cell-based
A-375 = assay: Anticancer activity against human A-375 cells; type: functional, cell-based
Cholinesterase [3] = target: T1, Cholinesterase (Homo sapiens, UniProt P06276); assay: Binding affinity to BuChE (unknown origin) assessed as inhibition constant
Cholinesterase [4] = target: T1, Cholinesterase; assay: Inhibition of human serum BuChE preincubated for 5 mins followed by BuCh addition measured after 5 mins by Ellman's method
Cholinesterase [5] = target: Cholinesterase (Equus caballus, UniProt P81908); assay: Inhibition of horse serum BuChE preincubated for 5 mins followed by BuCh addition measured after 5 mins by Ellman's method
Acetylcholinesterase = Acetylcholinesterase (Homo sapiens, UniProt P22303); assay: Inhibition of AChE (unknown origin) preincubated for 5 mins followed by […] measured after 5 mins by Ellman's method
HeLa [6] = assay: Cytotoxicity against human HeLa cells; type: functional, cell-based; settings: pooled result: one value given for 5 cell lines, strains, targets or settings
Homo sapiens = species: Homo sapiens; assay: Inhibition of PI3K (unknown origin) at 20 uM relative to control
A-431 = assay: Cytotoxicity against human A431 cells expressing EGFR incubated for 72 hrs by MTT assay; type: functional, cell-based; settings: A-431, 72 h
NCI-H1975 = assay: Cytotoxicity against human NCI-H1975 cells expressing EGFR T790 mutant incubated for 72 hrs by MTT assay; type: functional, cell-based; settings: NCI-H1975, 72 h
A549 = assay: Cytotoxicity against human A549 cells expressing EGFR incubated for 72 hrs by MTT assay; type: functional, cell-based; settings: A549, 72 h
Escherichia coli = assay: Antimicrobial activity against Escherichia coli assessed as zone of inhibition; type: functional
Klebsiella pneumoniae = assay: Antimicrobial activity against Klebsiella pneumoniae assessed as zone of inhibition; type: functional
Aspergillus niger = assay: Antifungal activity against Aspergillus niger assessed as zone of inhibition; type: functional
Curvularia lunata = assay: Antifungal activity against Cochliobolus lunatus assessed as zone of inhibition; type: functional
Fusarium solani = assay: Antifungal activity against Fusarium solani assessed as zone of inhibition; type: functional
PC-12 = assay: Neuroprotection against H2O2-induced cell injury in rat PC-12 cells assessed as cell viability preincubated for 3 hrs followed by H2O2 addition measured after 5 hrs by MTT assay; type: functional; settings: time 8 hrs
HUVEC = assay: Antitubulin activity against HUVEC assessed as morphological changes of tube incubated for 6 hrs by inverted microscope; type: functional, cell-based; settings: Homo sapiens
K562 = assay: Cytotoxicity against human K562 cells incubated for 48 hrs by MTT assay; type: functional, cell-based; settings: K562, 48 h
[7] = Cytotoxicity against human HO-8910 cells incubated for 48 hrs by MTT assay; type: functional, cell-based; settings: HO-8910, 48 h
[8] = Cytotoxicity against HBMSC cells incubated for 48 hrs by MTT assay; type: toxicity, cell-based; settings: human
ES-2 = assay: Cytotoxicity against human ES2 cells incubated for 48 hrs by MTT assay; type: functional, cell-based; settings: ES-2, 48 h
BV-2 = assay: Anti-infalmmatory activity in LPS-induced NO production in mouse BV-2 microglial cells preincubated for 3 hrs followed by LPS addition measured after 24 hrs by NO assay kit; type: functional, cell-based
[9] = Permeability across blood brain barrier assessed as central nervous system multi-parameter optimization score; type: ADME, tissue-based
[10] = Permeability of the compound across blood brain barrier by PAMPA; type: ADME, tissue-based; settings: read-out: logBB (converted)
SK-OV-3 = assay: Cytotoxicity against human SK-OV-3 cells assessed as reduction in cell viability; type: functional, cell-based
HT-29 = assay: Cytotoxicity against human HT-29 cells assessed as reduction in cell viability; type: functional, cell-based
OVCAR-3 = assay: Cytotoxicity against human OVCAR-3 cells assessed as reduction in cell viability; type: functional, cell-based
PC-3 = assay: Cytotoxicity against human PC-3 cells assessed as reduction in cell viability; type: functional, cell-based
[11] = Cytotoxicity against human SB2 cells assessed as reduction in cell viability; type: functional, cell-based
MeWo = assay: Cytotoxicity against human MeWo cells assessed as reduction in cell viability; type: functional, cell-based
Staphylococcus aureus = assay: Antimicrobial activity against Staphylococcus aureus assessed as zone of inhibition at 100 uM; type: functional
Bacillus subtilis = assay: Antimicrobial activity against Bacillus subtilis assessed as zone of inhibition at 100 uM; type: functional

Sequence of Telomerase reverse transcriptase (O14746 whole entry): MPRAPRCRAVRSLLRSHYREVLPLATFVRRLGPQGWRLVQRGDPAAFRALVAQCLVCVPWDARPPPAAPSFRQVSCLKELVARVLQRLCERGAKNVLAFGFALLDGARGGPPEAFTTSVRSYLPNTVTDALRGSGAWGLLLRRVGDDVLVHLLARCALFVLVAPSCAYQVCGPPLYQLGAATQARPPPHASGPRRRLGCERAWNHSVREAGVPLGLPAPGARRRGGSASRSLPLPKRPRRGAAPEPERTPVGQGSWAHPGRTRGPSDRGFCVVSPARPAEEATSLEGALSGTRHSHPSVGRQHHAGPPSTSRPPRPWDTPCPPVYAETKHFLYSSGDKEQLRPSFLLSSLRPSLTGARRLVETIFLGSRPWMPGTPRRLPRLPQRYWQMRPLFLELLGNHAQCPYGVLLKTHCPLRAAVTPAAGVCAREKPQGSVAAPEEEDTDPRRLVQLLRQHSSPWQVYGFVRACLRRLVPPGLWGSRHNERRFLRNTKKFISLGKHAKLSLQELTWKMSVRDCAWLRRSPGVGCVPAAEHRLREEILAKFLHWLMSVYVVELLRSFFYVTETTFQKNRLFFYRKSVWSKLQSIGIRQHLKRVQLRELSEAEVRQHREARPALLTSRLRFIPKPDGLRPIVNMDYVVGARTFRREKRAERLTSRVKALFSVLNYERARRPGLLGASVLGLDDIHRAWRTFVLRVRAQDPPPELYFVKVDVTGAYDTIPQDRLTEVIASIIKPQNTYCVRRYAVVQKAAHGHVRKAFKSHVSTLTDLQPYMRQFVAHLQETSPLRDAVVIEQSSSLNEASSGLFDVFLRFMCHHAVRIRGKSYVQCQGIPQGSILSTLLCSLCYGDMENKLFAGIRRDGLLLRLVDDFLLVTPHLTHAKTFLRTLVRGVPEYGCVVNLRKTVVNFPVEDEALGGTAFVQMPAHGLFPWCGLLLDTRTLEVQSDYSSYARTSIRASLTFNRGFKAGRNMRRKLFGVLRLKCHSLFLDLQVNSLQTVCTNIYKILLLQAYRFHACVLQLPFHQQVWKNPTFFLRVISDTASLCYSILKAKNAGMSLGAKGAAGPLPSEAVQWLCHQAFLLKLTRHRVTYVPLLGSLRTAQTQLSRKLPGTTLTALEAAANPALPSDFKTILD
T1 sequence (P06276 whole entry): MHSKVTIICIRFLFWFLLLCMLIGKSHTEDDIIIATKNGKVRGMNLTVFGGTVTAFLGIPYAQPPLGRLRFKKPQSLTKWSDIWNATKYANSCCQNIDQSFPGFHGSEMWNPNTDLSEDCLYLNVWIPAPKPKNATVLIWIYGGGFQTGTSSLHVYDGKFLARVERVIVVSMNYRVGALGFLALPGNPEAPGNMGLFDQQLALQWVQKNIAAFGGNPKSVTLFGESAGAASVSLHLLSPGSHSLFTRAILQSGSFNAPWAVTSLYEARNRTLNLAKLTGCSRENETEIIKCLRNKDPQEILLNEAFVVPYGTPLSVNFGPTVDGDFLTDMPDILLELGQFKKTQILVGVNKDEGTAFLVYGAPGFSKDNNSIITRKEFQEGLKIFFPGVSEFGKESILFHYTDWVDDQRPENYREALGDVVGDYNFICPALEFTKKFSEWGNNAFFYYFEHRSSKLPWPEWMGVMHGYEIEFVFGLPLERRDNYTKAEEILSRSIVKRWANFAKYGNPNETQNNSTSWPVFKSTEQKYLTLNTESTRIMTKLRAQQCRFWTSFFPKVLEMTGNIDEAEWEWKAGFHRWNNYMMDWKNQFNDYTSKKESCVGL
Sequence of Cholinesterase (Equus caballus, UniProt P81908) (P81908 whole entry): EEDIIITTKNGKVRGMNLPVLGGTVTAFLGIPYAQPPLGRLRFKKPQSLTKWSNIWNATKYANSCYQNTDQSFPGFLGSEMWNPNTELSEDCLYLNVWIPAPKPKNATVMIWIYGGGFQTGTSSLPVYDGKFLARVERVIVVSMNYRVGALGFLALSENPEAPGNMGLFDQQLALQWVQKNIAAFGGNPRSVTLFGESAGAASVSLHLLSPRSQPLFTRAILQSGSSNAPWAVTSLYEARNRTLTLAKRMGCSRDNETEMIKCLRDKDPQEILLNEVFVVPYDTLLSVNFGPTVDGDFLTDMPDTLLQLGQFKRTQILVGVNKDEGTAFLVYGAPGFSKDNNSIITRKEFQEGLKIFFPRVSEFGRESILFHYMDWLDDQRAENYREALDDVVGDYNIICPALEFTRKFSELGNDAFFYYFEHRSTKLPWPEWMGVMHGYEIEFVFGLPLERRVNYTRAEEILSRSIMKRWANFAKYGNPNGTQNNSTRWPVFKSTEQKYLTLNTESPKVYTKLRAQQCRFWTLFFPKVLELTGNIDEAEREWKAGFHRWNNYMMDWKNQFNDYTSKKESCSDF
Sequence of Acetylcholinesterase (P22303 whole entry): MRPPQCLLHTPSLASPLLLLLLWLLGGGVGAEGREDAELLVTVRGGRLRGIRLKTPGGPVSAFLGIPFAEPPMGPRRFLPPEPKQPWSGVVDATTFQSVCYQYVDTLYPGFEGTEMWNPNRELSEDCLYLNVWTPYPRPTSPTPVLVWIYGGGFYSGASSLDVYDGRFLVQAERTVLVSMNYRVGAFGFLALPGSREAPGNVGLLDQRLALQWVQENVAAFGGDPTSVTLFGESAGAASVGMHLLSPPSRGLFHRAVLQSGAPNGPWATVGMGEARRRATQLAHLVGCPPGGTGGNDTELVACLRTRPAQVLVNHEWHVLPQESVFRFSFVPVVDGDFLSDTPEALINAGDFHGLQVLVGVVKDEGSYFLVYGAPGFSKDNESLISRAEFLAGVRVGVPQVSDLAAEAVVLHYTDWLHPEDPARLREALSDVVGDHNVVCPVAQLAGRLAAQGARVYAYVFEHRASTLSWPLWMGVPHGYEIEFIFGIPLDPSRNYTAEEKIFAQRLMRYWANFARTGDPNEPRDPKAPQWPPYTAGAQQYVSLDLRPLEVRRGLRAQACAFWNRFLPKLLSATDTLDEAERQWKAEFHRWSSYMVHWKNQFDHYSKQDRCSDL

In the case of COCCN1CCN(C(=O)N[C@@H](Cc2ccccc2)C(=O)N[C@H](/C=C/S(=O)(=O)c2ccccc2)CCc2ccccc2)CC1, the IC50 (SARS-CoV) is reported as 0.04 nM and the IC50 (Ebolavirus) is reported as 0.04 nM.
For O=S(=O)(F)/C=C/c1ccc(-c2ccccc2)cc1, the IC50 [1] was less than 1000 nM.
With CC(=O)OC[C@H]1O[C@@H](n2cc(/C(Cl)=C\S(=O)(=O)c3ccc(C)cc3)c(=O)[nH]c2=O)C[C@@H]1OC(C)=O the EC50 (Human alphaherpesvirus 3) was 4000 nM, the IC50 (L1210) was 5600 nM and the IC50 (HeLa [2]) was 23000 nM. It also gave an IC50 (CCRF-CEM) of 11000 nM.
For O=S(=O)(F)/C=C/C=C/c1ccc(/C=C/S(=O)(=O)F)cc1, the IC50 [1] was less than 1000 nM, the IC50 (MDA-MB-231) was 3220 nM and the IC50 (A-375) was 1580 nM.
For COc1ccccc1/C=C/C=C(\Br)S(=O)(=O)F, the Ki (Cholinesterase [3]) was 29 nM, the IC50 (Cholinesterase [4]) was 3620 nM and the IC50 (Cholinesterase [5]) was 21 nM. It also gave an IC50 (Acetylcholinesterase) of 79 nM.
O=c1oc2ccc([N+](=O)[O-])cc2cc1S(=O)(=O)Cc1ccc(F)cc1 gave an IC50 (HeLa [6]) of 18100 nM and an inhibition (Homo sapiens) of 50%.
For CC(C)N1CCN(C(=O)N[C@@H](Cc2ccccc2)C(=O)N[C@H](/C=C/S(=O)(=O)c2ccccc2)CCc2ccccc2)CC1, the IC50 (SARS-CoV) was 0.04 nM and the IC50 (Ebolavirus) was 0.04 nM.
In the case of O=C(N[C@H](/C=C/S(=O)(=O)c1ccccc1)CCc1ccccc1)[C@H](Cc1ccccc1)NC(=O)N1CCN(c2ccccc2)CC1, the IC50 (SARS-CoV) is reported as 0.04 nM and the IC50 (Ebolavirus) is reported as 0.04 nM.
In the case of COc1cc(/C=C/S(=O)(=O)c2ccccc2)cc(OC)c1OC, the IC50 (A-431) is reported as 33500 nM, the IC50 (NCI-H1975) is reported as 30400 nM and the IC50 (A549) is reported as 54600 nM.
For O=C(N[C@H](CO)[C@H](O)c1ccc([N+](=O)[O-])cc1)C(Cl)Cl [CHLORAMPHENICOL], the Activity (Escherichia coli) was greater than 35 mm and the Activity (Klebsiella pneumoniae) was greater than 35 mm.
For CC(=O)N1CCN(c2ccc(OCC3COC(Cn4ccnc4)(c4ccc(Cl)cc4Cl)O3)cc2)CC1 (centres undefined) [KETOCONAZOLE], the Activity (Aspergillus niger) was greater than 36 mm, the Activity (Curvularia lunata) was greater than 36 mm and the Activity (Fusarium solani) was greater than 36 mm.
For O=S(=O)(/C=C/c1ccc(O)c(O)c1)CCCc1ccccc1, the Activity (PC-12) was 94.5%.
With COc1ccc(/C=C/S(=O)(=O)c2cc(OC)c(OC)c(OC)c2)cc1N the IC50 (HUVEC) was 4250 nM.
CC(=O)c1ccc(/C(=C\C(F)(F)F)S(=O)(=O)c2ccccc2)cc1 gave an IC50 (K562) of 200 nM, an IC50 [7] of 400 nM and an IC50 at 48 h [8] of 200 nM. The IC50 (ES-2) was 400 nM.
O=S(=O)(/C=C/c1ccc(O)c(O)c1)CCCC1CCCC1 gave an IC50 (BV-2) of 1600 nM, an Activity [9] of 4.36 and a Kp [10] of 0.316.
With C=C(CCCCCCCCCCCCCCCC)S(=O)(=O)CCC[N+](C)(C)C the IC50 (SK-OV-3) was 390 nM, the IC50 (HT-29) was 390 nM and the IC50 (OVCAR-3) was 390 nM. The IC50 (PC-3) was 390 nM, the IC50 [11] was 390 nM and the IC50 (MeWo) was 390 nM.
In the case of O=S(=O)(F)/C=C/c1ccc2ccccc2c1, the IC50 [1] is reported as less than 1000 nM.
With O=C(c1ccc(Cl)cc1)c1c[nH]cc1S(=O)(=O)c1c(-c2ccc(Cl)cc2)noc1-c1ccccc1 the Activity (Aspergillus niger) was greater than 26 mm, the Activity (Staphylococcus aureus) was greater than 25 mm and the Activity (Bacillus subtilis) was greater than 25 mm. It also gave an Activity (Curvularia lunata) greater than 26 mm, an Activity (Escherichia coli) greater than 20 mm and an Activity (Klebsiella pneumoniae) greater than 20 mm. For the same compound, the Activity (Fusarium solani) was greater than 26 mm.
With CN1CCN(C(=O)N[C@@H](Cc2ccccc2)C(=O)N[C@H](/C=C/S(=O)(=O)c2ccccc2)CCc2ccccc2)CC1 [K-777] the IC50 (Ebolavirus) was 0.36 nM.
In the case of CCCN1CCN(C(=O)N[C@@H](Cc2ccccc2)C(=O)N[C@H](/C=C/S(=O)(=O)c2ccccc2)CCc2ccccc2)CC1, the IC50 (SARS-CoV) is reported as 0.04 nM and the IC50 (Ebolavirus) is reported as 0.04 nM.
With CC(C)(C)N1CCN(C(=O)N[C@@H](Cc2ccccc2)C(=O)N[C@H](/C=C/S(=O)(=O)c2ccccc2)CCc2ccccc2)CC1 the IC50 (SARS-CoV) was 0.04 nM and the IC50 (Ebolavirus) was 0.04 nM.
In the case of O=c1[nH]c(=O)n([C@H]2C[C@H](O)[C@@H](CO)O2)cc1/C=C/Br [BRIVUDINE], the EC50 (Human alphaherpesvirus 3) is reported as 20 nM.
CCN1CCN(C(=O)N[C@@H](Cc2ccccc2)C(=O)N[C@H](/C=C/S(=O)(=O)c2ccccc2)CCc2ccccc2)CC1 showed an IC50 (SARS-CoV) of 0.04 nM and an IC50 (Ebolavirus) of 0.04 nM.
With COc1cc(OC)c(/C=C/S(=O)(=O)Cc2ccc(OC)c(NCC(=O)O)c2)c(OC)c1 [RIGOSERTIB SODIUM] the IC50 (HeLa [6]) was 10 nM.
Compound O=c1oc2ccc(Br)cc2cc1S(=O)(=O)Cc1ccc(F)cc1 has an IC50 (HeLa [6]) of 29300 nM and an inhibition (Homo sapiens) of 50%.
Work on O=C(c1ccc(Cl)cc1)c1c[nH]cc1S(=O)(=O)c1n[nH]cc1-c1ccccc1 yielded an Activity (Aspergillus niger) greater than 26 mm, an Activity (Staphylococcus aureus) greater than 25 mm and an Activity (Bacillus subtilis) greater than 25 mm. The Activity (Curvularia lunata) was greater than 26 mm, the Activity (Escherichia coli) was greater than 20 mm and the Activity (Klebsiella pneumoniae) was greater than 20 mm. The Activity (Fusarium solani) was greater than 26 mm.
